Data taken from patent publication US9820990B2, “Methods of treating disorders associated with protein aggregation” (University of Pittsburgh—Of the Commonwealth System of …, priority 2009, dated 2017).
Entries after “also recorded” stand apart in the source; their conditions may differ. Where a name gives a salt, the structure may show the parent alone. Read-outs that look alike come from different tables or passages of the source.

Experiments:
C. elegans = details: 0-100 mM, 4 hours, SYTOX Green uptake
Description: Animals were washed 5 times with M9 media and stained with 2 μM SYTOX™ Green (Invitrogen) for 5 minutes at room temperature (84). Approximately 50 animals/well were dispensed into an optical bottom black walled 96 well plate (Nunc Thermo Fisher Scientific, Rochester, N.Y., USA). Wells were imaged using the ArrayScan VTI over the entire area of the well in brightfield, red (TRITC) and green (GFP) channels at 50× magnification. The total number of animals and the number of dead bodies were determined by counting red and green spots, respectively. Data from SpotDetector algorithm were confirmed by manual counting of the live and dead animals. Percent dead=(the number of green objects detected/total number of animals)×100.
To determine whether the system could discriminate dead from live intestinal cells, we scanned and analyzed young adult animals exposed to different concentrations of NaAz in the presence SYTOX® Green.
sGFP::ATZ [1] = assay: LOPAC library high-content primary screen for sGFP::ATZ accumulation in transgenic animals; format: in vivo, C. elegans; details: for Rank-score: 24 h
mCherry::LGG-1 = assay: Induction of autophagy in transgenic animals expressing Pnhx-2mCherry::lgg-1; format: in vivo, C. elegans; details: compared with well-fed animals treated with DMSO (diffuse)
From the text: FIG. 18A-E. Induction of autophagy by hit compounds. Images of transgenic animals expressing Pnhx-2mCherry:lgg-1 treated with various compounds are shown. Images were acquired using a Nikon instruments TiEclipse widefield light microscope fitted with a 20× Plan Apochromat objective. Images were then deconvolved using Volocity (Perkin Elmer, v 5.3.2). Deconvolved z planes were then merged to a single plane. Well-fed animals treated with DMSO (A) show a diffuse mCherry expression throughout the intestine. […] Starved (E) animals are included as a positive control for autophagy. Scale bar, 50 μm.
Macroautophagy is a cellular process in which a double membrane envelops cytosolic components or organelles (autophagosome) and delivers this material to a lysosome (autophagolysosome) for degradation and recycling (reviewed in 79). LGG-1/LC3/Atg8 is a diffuse cytosolic protein that participates in autophagosome formation and becomes inserted into the autophagosome membrane (80). Upon autophagosome formation, LGG-1 fused to mCherry changes its cytoplasmic distribution pattern from diffuse (lower fluorescence intensity) to punctate (higher fluorescence intensity) (80). To determine whether the imaging system could follow this process, a strain expressing a Pnhx-2mCherry::lgg-1 transgene was examined after starvation, a potent inducer of intestinal autophagosome formation (81). In well-fed animals, the diffuse cytoplasmic fluorescence in the intestinal cells was well above that of the N2 background (FIGS. 13K-13L, 13O-13Q). To detect mCherry::LGG-1 puncta, the diffuse fluorescence intensity of the well-fed animals was used to calibrate a threshold from which the SpotDetector BioApplication could detect any high-intensity spots. Although basal autophagy in the well-fed animals yielded a few spots (FIG. 13O), the large number of distinct puncta in the starved animals (FIGS. 13M, 13N, 13O-Q) indicated a marked increase in autophagy that was detected best by a statistically significant increase in spot count or total spot intensity per animal (FIGS. 13O and 13Q, respectively). […]

sGFP::ATZ [2] = assay: Hit compound characterization: dose-response in the sGFP::ATZ HCS assay; format: in vivo, C. elegans; parameters: key to dose-dependent response: c: Compound demonstrated a dose-dependent response.; Compound failed to demonstrate a dose-dependent response; details: for concentration at which an anti-protein aggregate effect was achieved: C. elegans assay; for degradation of aggregated ATZ protein: Caenorhabditis elegans model system; for effect on sGFP::ATZ accumulation: dose-response, 0-100 μM; for dose-dependent response: retest at 0-100 μM, 24 or 48 hours; for GFP+ inclusions in ATZ worms: at 10 μM
Description: Imaging of animals using the ArrayScan VTI: Prior to imaging, worms were anesthetized by adding 30 μl of 0.02 M NaN3 in PBS to each well. Plates were resealed, inverted twice, and incubated for 5 minutes at room temperature. Images were acquired with the ArrayScan VTI HCS Reader fitted with a 2.5× objective and a 0.63× coupler using a 2-channel (TRITC and GFP) assay. Real-time analysis was performed using the SpotDetector BioApplication optimized to quantify fluorescent protein expression in C. elegans. Image acquisition and analysis of a 384-well plate was completed in <45 minutes. The total number of animals in the well was determined by counting the number of red heads (Pmyo-2mRFP) in the TRITC channel. Total spot area or total spot intensity was determined by quantifying the GFP-positive spots in the GFP channel. Total spot area or total spot intensity per animal was determined by dividing the values from the GFP channel by that from the TRITC channel.
Hit compound characterization: Compounds that were identified as potential hits were purchased (if available) and retested for verification. […] Compounds that produced a response in a dose-dependent manner were further tested for a time-dependent response. Compound dose-response curves were performed by dispensing 15 μl of a 4× stock solution into 384-well plates containing 15 μl of assay medium (see above). Thirty-five animals were sorted into each well bringing the volume to ˜60 μl. The final compound concentrations in each well varied from 0-100 μM. Assay plates were incubated in a 22° C. incubator for 24 or 48 hours. Each compound was tested in quadruplicate in at least 2 independent experiments.
Statistical evaluation: Statistical evaluation of data was performed using Prism® (Graphpad Software). The significance of actual and predicted data in FIGS. 12, 14 and 15 was determined using a linear regression analysis and comparing the slope and goodness-of-fit (r2) values. Statistical significance of the spot count, spot area and spot intensity values between N2 (wild-type) and various transgenic lines in FIG. 13 and dose-response in FIG. 17 was determined using an unpaired, one-tailed, Student's t-test.
Compound screen: To test the HCS protocol, a pilot drug screen was performed using the library of pharmacologically active compounds (LOPAC1280™ 1280 compounds). Tight gating parameters for total fluorescence were used to sort 35 young adult Pnhx2sGFP::ATZ animals into wells of 384-well plates containing […] of a LOPAC compound and 0.5% DMSO. Pnhx2sGFP::ATZ animals incubated with 0.5% DMSO served as untreated controls and were placed in the first-two and last-two columns of each plate. In a representative experiment, plate 1 of the LOPAC library was set-up for screening on day 1, and 3 other plates were set-up on the next day. After 24 incubation at 25° C., animals were immobilized by the addition of NaAz and placed in the ArrayScan VTI for automated imaging. To examine for systematic errors, the raw data (total spot area/animal) were depicted as a plate-well scatter plot (FIG. 17A). […] This difference reflects a wider sort-window used to collect animals on day 1 in comparison to that used on day 2. As the average values of the negative controls and that of the sample wells were similar, we combined the control and samples wells for normalization and to identify potential hits using the z-score (FIG. 17B). The ArrayScan VTI reads microtiter plates by rows, alternating from left-to-right, and then right-to-left. For some assays, we noted that the control fluorescence values would drift upwards slightly in rows towards the bottom of the plate. This drift appeared to correlate with an increase in chamber temperature during the scanning period and was minimized by cooling the chamber with a fan or shortening the read times by using 2.5× objective with a 0.6 coupler. Nonetheless, intra-plate variation was controlled for by presenting the data as a B-score (FIG. 17C). […]

ATZ = details: mouse model of AT deficiency; cited from earlier work
ATZ in HTO/Z cells = assay: HTO/Z cells, Western blot analysis for AT; format: cell-based, human; details: for ATZ levels in the cell line: HTO/Z mammalian cell line model of AT deficiency
Description: The cells were incubated for 48 hrs with fluphenazine in several different concentrations and then subjected to Western blot analysis for AT. […] The effect is evident at doses of 1-10 μM. […] This is different from CBZ which appears to affect autophagic as well as proteasomal degradation.

[3] = among compounds that decreased ATZ accumulation, based on relative rank-scores
[4] = average of compound rankings by ascending B-score from two independent screens, 50 μM, <110 decreased, >1225 increased sGFP::ATZ inclusions

Compound	Overall rank-order (sGFP::ATZ [1]; [3])	Rank-score (sGFP::ATZ [1]; [4])	mCherry::LGG-1 distribution pattern (autophagic activity) (mCherry::LGG-1)	degradation of aggregated ATZ protein (sGFP::ATZ [2])	effect on sGFP::ATZ accumulation (sGFP::ATZ [2])	dose-dependent response (sGFP::ATZ [2])	also measured
[N-]=[N+]=[N-] [sodium azide]	–	–	–	–	–	–	number of dead animals (C. elegans): dose dependent increase
CC12C(=O)OC(=O)C1(C)C1CCC2O1 (centres unmarked) [cantharidin, 2,6-Dimethyl-4,10-dioxatricyclo-[5.2.1.02,6]decane-3,5-dione]	2	2.5	markedly punctate distribution pattern indicative of increased autophagic activity	able to promote degradation of aggregated ATZ protein	dose-dependant decrease in sGFP::ATZ accumulation; also recorded: decreased	cantharidin^c	concentration at which an anti-protein aggregate effect was achieved (sGFP::ATZ [2]): 100 µM; effect on sGFP::ATZ accumulation (sGFP::ATZ [2]; listed as Cantharidin): dose-dependent decrease in sGFP::ATZ accumulation
NC(=O)N1c2ccccc2C=Cc2ccccc21 [carbamazepine]	–	–	–	–	–	–	amount of ATZ accumulated in the liver (ATZ): decrease
O=c1[nH]c2ccccc2n1C1CCN(CCCC(c2ccc(F)cc2)c2ccc(F)cc2)CC1 [pimozide, 1-[1-[4,4-bis(4-fluorophenyl)butyl]-4-piperidyl]-1,3-dihydrobenzoimidazol-2-one]	33	107.5	markedly punctate distribution pattern indicative of increased autophagic activity	able to promote degradation of aggregated ATZ protein	dose-dependent decrease in sGFP::ATZ accumulation; also recorded: dose-dependant decrease in sGFP::ATZ accumulation; also recorded: dose-dependent effect; also recorded: decreased	pimozide^c	GFP+ inclusions in ATZ worms (sGFP::ATZ [2]): almost complete elimination of the inclusions; ATZ levels in the cell line (ATZ in HTO/Z cells): effective in reducing ATZ levels; also recorded: decreased ATZ
OCCN1CCN(CCCN2c3ccccc3Sc3ccc(C(F)(F)F)cc32)CC1 [fluphenazine dihydrochloride, 4-[3-[2-(Trifluoromethyl)phenothiazin-10-yl]propyl]-1-piperazineethanol]	–	–	markedly punctate distribution pattern indicative of increased autophagic activity	able to promote degradation of aggregated ATZ protein	dose-dependent decrease in sGFP::ATZ accumulation; also recorded: dose-dependant decrease in sGFP::ATZ accumulation; also recorded: dose-dependent effect; also recorded: decreased	fluphenazine dihydrochloride^c	Overall rank-order (sGFP::ATZ [1]): 23; Rank-score (sGFP::ATZ [1]; 50 µM): 81.0; GFP+ inclusions in ATZ worms (sGFP::ATZ [2]): almost complete elimination of the inclusions; doses at which the decrease in insoluble ATZ is evident (ATZ in HTO/Z cells; HTO/Z cells, 48 hrs): 1 to 10 µM; levels of the control GAPDH (ATZ in HTO/Z cells; HTO/Z cells, 48 hrs): no significant change; soluble ATZ (ATZ in HTO/Z cells; HTO/Z cells, 48 hrs): increase; insoluble ATZ levels (ATZ in HTO/Z cells; HTO/Z cells, 48 hrs, several concentrations): dose-dependent decrease; ATZ levels in the cell line (ATZ in HTO/Z cells): effective in reducing ATZ levels; ATZ levels in the cell line (ATZ in HTO/Z cells; listed as fluphenzine hydrochloride): decreased ATZ
CCN1CCc2nc(N)oc2CC1.Cl.Cl [B-HT 933 dihydrochloride]	32	105.5	–	–	–	B-HT 933 dihydrochloride^d	–
5′-3′2,3-dicarboxy-2,3-dimethyl-1,4-epoxycyclohexane [cantharidic acid]	22	79.0	–	able to promote degradation of aggregated ATZ protein	–	cantharidic acid^c	concentration at which an anti-protein aggregate effect was achieved (sGFP::ATZ [2]): 100 µM
CC/C(=C(\c1ccccc1)c1ccc(OCCN(C)C)cc1)c1ccccc1 [tamoxifen citrate, (Z)-2-[4-(1,2-diphenylbut-1-enyl)phenoxy]-N,N-dimethylethylamine]	24	83.5	–	able to promote degradation of aggregated ATZ protein	dose-dependant decrease in sGFP::ATZ accumulation	tamoxifen citrate^c	–
CN(C)CCC=C1c2ccccc2COc2ccccc21 [doxepin hydrochloride]	–	–	–	–	–	doxepin hydrochloride^d	Overall rank-order (sGFP::ATZ [1]): 15; Rank-score (sGFP::ATZ [1]; 50 µM): 61.0
L(−)-norepinephrine bitartrate	7	36.5	–	–	–	L(−)-norepinephrine bitartrate^d	–
